Measured values: the supplement of paper PMC5579334
± gives the standard deviation of the averaged measurements.

Experiments:
[1] = test system: HS-PSS; assay: % inhibition of CellTiter-Glo viability at highest tested concentration (72 h), relative to DMSO and benzethonium chloride controls; higher = more inhibition
How it was run: (§1)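 Viability was scored by CellTiter-Glo ATP luminescence, scaled from vehicle to positive-control wells, with duplicates averaged where present. The cells, MPNST lines and primary human Schwann cells at 750–1000 per well, sat 72 h at 37 °C, 5% CO2, in 384-well plates preprinted with each compound at five concentrations in 10-fold steps. Four-parameter logistic fits were run on the data. These fits give drug sensitivity score and relative IC50 censored at the top concentration, and percent inhibition is reported at the top concentration.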

[2] = test system: S1507-2; assay: as above
How it was run: as §1

[3] = test system: STS26T; assay: as above
How it was run: as §1

[4] = test system: HSC2 (primary human Schwann cells); assay: as above
How it was run: as §1

[5] = test system: ST8814; assay: as above
How it was run: as §1

[6] = test system: YST-1; assay: as above
How it was run: as §1

[7] = test system: S462; assay: as above
How it was run: as §1

[8] = test system: HSC1 (primary human Schwann cells); assay: as above
How it was run: as §1

[9] = test system: HS-Sch-2; assay: as above
How it was run: as §1

[10] = test system: HS-PSS; assay: drug sensitivity score (DSS, CellTiter-Glo viability, 72 h) (DSS (dimensionless)); higher = more sensitive; extreme values may be limits of the assay
How it was run: as §1

[11] = test system: S1507-2; assay: as above
How it was run: as §1

[12] = test system: STS26T; assay: as above
How it was run: as §1

[13] = test system: HSC2 (primary human Schwann cells); assay: as above
How it was run: as §1

[14] = test system: ST8814; assay: as above
How it was run: as §1

[15] = test system: YST-1; assay: as above
How it was run: as §1

[16] = test system: S462; assay: as above
How it was run: as §1

[17] = test system: HSC1 (primary human Schwann cells); assay: as above
How it was run: as §1

[18] = test system: HS-Sch-2; assay: as above
How it was run: as §1

[19] = test system: HS-PSS; assay: drug sensitivity score (DSS, CellTox-Green cytotoxicity, 72 h) (DSS (dimensionless)); higher = more cytotoxic; extreme values may be limits of the assay
How it was run: (§2)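 MPNST cell lines and primary human Schwann cells were incubated 72 h at 37 °C in 384-well plates holding five 10-fold compound dilutions. CellTox-Green was added before seeding at a final 1:1000 dilution and reported fluorescence from DNA released by disrupted cells. Signals were scaled to vehicle and positive-control wells, and cultures failing plate quality control were dropped. Drug sensitivity score and relative IC50 come from four-parameter logistic fits, with IC50 censored at the top concentration.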

[20] = test system: S1507-2; assay: as above
How it was run: as §2

[21] = test system: STS26T; assay: as above
How it was run: as §2

[22] = test system: HSC2 (primary human Schwann cells); assay: as above
How it was run: as §2

[23] = test system: ST8814; assay: as above
How it was run: as §2

[24] = test system: HSC1 (primary human Schwann cells); assay: as above
How it was run: as §2

In the case of `CN1CC[C@H](c2c(O)cc(O)c3c(=O)cc(-c4ccccc4Cl)oc23)[C@H](O)C1` [Alvocidib] (max concentration tested 10000 nM), the “% inhibition” value [1] is reported as 83.7%, the “% inhibition” value [2] is reported as 81.118 ± 0.0062% and the “% inhibition” value [3] is reported as 95.8%. For the same molecule, the “% inhibition” value [4] was 89.1%, the “% inhibition” value [5] was 79.8% and the “% inhibition” value [6] was 97.8%. The “% inhibition” value [7] was 99.41 ± 0.97%, the “% inhibition” value [8] was 85.4% and the “% inhibition” value [9] was 101%. It also gave a drug sensitivity score [10] of 20.4, a drug sensitivity score [11] of 15.5 ± 0.93 and a drug sensitivity score [12] of 20.1. For the same molecule, the drug sensitivity score [13] was 17.9, the drug sensitivity score [14] was 17.8 and the drug sensitivity score [15] was 20.5. The drug sensitivity score [16] was 21.1 ± 0.91, the drug sensitivity score [17] was 18 and the drug sensitivity score [18] was 20.6. It also gave a drug sensitivity score [19] of 4.23, a drug sensitivity score [20] of 2.61 ± 3.7 and a drug sensitivity score [21] of 10.1. The drug sensitivity score [22] was 11.7, the drug sensitivity score [23] was 4.45 and the drug sensitivity score [24] was 8.24.
For `CCC1(c2ccc(N)cc2)CCC(=O)NC1=O` (stereo not drawn) [Aminoglutethimide] (max concentration tested 10000 nM), the “% inhibition” value [1] was 1.47%, the “% inhibition” value [2] was 3.35 ± 1.2% and the “% inhibition” value [3] was 2.67%. The “% inhibition” value [4] was -6.11%, the “% inhibition” value [5] was -3.31% and the “% inhibition” value [6] was -9.69%. The “% inhibition” value [7] was -7.67 ± 7.8%, the “% inhibition” value [8] was 8.78% and the “% inhibition” value [9] was 3.62%. The drug sensitivity score [10] was 0, the drug sensitivity score [11] was 0 and the drug sensitivity score [12] was 0. It also gave a drug sensitivity score [13] of 0, a drug sensitivity score [14] of 0 and a drug sensitivity score [15] of 0. For the same molecule, the drug sensitivity score [16] was 0, the drug sensitivity score [17] was 0 and the drug sensitivity score [18] was 0. For the same molecule, the drug sensitivity score [19] was 0, the drug sensitivity score [20] was 0 and the drug sensitivity score [21] was 0. The drug sensitivity score [22] was 0, the drug sensitivity score [23] was 0 and the drug sensitivity score [24] was 0.
For `CN(C)CCN1C(=O)c2cccc3cc(N)cc(c23)C1=O` [Amonafide] (max concentration tested 10000 nM), the “% inhibition” value [1] was 93.8%, the “% inhibition” value [2] was 90.4 ± 2% and the “% inhibition” value [3] was 78.7%. The “% inhibition” value [4] was 76.3%, the “% inhibition” value [5] was 101% and the “% inhibition” value [6] was 100%. The “% inhibition” value [7] was 90.9 ± 2.4%, the “% inhibition” value [8] was 69.3% and the “% inhibition” value [9] was 99.9%. The drug sensitivity score [10] was 6.59, the drug sensitivity score [11] was 8.84 ± 0.35 and the drug sensitivity score [12] was 5.83. The drug sensitivity score [13] was 6.42, the drug sensitivity score [14] was 8.9 and the drug sensitivity score [15] was 11.1. The drug sensitivity score [16] was 8.23 ± 0.65, the drug sensitivity score [17] was 7.05 and the drug sensitivity score [18] was 8.84. The drug sensitivity score [19] was 4.02, the drug sensitivity score [20] was 2.18 ± 0.64 and the drug sensitivity score [21] was 0.0609. It also gave a drug sensitivity score [22] of 0.087, a drug sensitivity score [23] of 3.57 and a drug sensitivity score [24] of 0.
`O=C1CN2Cc3c(ccc(Cl)c3Cl)N=C2N1` [Anagrelide] (max concentration tested 10000 nM) was tested, and the “% inhibition” value [1] was 4.14%, the “% inhibition” value [2] was -1.32 ± 1.6% and the “% inhibition” value [3] was 1.1%. The “% inhibition” value [4] was 51.1%, the “% inhibition” value [5] was 17.3% and the “% inhibition” value [6] was 2.83%. For the same molecule, the “% inhibition” value [7] was -5.96 ± 0.63%, the “% inhibition” value [8] was 17.3% and the “% inhibition” value [9] was 38.7%. The drug sensitivity score [10] was 0, the drug sensitivity score [11] was 0 and the drug sensitivity score [12] was 0. For the same molecule, the drug sensitivity score [13] was 11.1, the drug sensitivity score [14] was 0.934 and the drug sensitivity score [15] was 0. It also gave a drug sensitivity score [16] of 0, a drug sensitivity score [17] of 1.41 and a drug sensitivity score [18] of 8.23. For the same molecule, the drug sensitivity score [19] was 0, the drug sensitivity score [20] was 0 and the drug sensitivity score [21] was 0. For the same molecule, the drug sensitivity score [22] was 0.367, the drug sensitivity score [23] was 0 and the drug sensitivity score [24] was 0.
In the case of `CC(C)(C#N)c1cc(Cn2cncn2)cc(C(C)(C)C#N)c1` [Anastrozole] (max concentration tested 10000 nM), the “% inhibition” value [1] is reported as -11.6%, the “% inhibition” value [2] is reported as -9.3 ± 9.7% and the “% inhibition” value [3] is reported as -1.93%. The “% inhibition” value [4] was -11%, the “% inhibition” value [5] was -7.93% and the “% inhibition” value [6] was 6.26%. For the same molecule, the “% inhibition” value [7] was -13.3 ± 6.7%, the “% inhibition” value [8] was -2.19% and the “% inhibition” value [9] was -11.4%. For the same molecule, the drug sensitivity score [10] was 0, the drug sensitivity score [11] was 0 and the drug sensitivity score [12] was 0. For the same molecule, the drug sensitivity score [13] was 0, the drug sensitivity score [14] was 0 and the drug sensitivity score [15] was 0. It also gave a drug sensitivity score [16] of 0, a drug sensitivity score [17] of 0 and a drug sensitivity score [18] of 0. The drug sensitivity score [19] was 0, the drug sensitivity score [20] was 0 and the drug sensitivity score [21] was 0. It also gave a drug sensitivity score [22] of 0, a drug sensitivity score [23] of 0 and a drug sensitivity score [24] of 0.
For `CC(C)c1c(C(=O)Nc2ccccc2)c(-c2ccccc2)c(-c2ccc(F)cc2)n1CC[C@@H](O)C[C@@H](O)CC(=O)O` [Atorvastatin] (max concentration tested 10000 nM), the “% inhibition” value [1] was 75.3%, the “% inhibition” value [2] was 41.9 ± 8% and the “% inhibition” value [3] was 69.6%. The “% inhibition” value [4] was 101%, the “% inhibition” value [5] was 55.2% and the “% inhibition” value [6] was 89.5%. The “% inhibition” value [7] was 96.5 ± 1.1%, the “% inhibition” value [8] was 97.5% and the “% inhibition” value [9] was 80.5%. It also gave a drug sensitivity score [10] of 6.74, a drug sensitivity score [11] of 2.53 ± 0.48 and a drug sensitivity score [12] of 5.4. It also gave a drug sensitivity score [13] of 19.7, a drug sensitivity score [14] of 3.73 and a drug sensitivity score [15] of 6.47. For the same molecule, the drug sensitivity score [16] was 9.93 ± 0.43, the drug sensitivity score [17] was 16.6 and the drug sensitivity score [18] was 6.02. The drug sensitivity score [19] was 0, the drug sensitivity score [20] was 1.46 ± 2.1 and the drug sensitivity score [21] was 2.9. It also gave a drug sensitivity score [22] of 19.6, a drug sensitivity score [23] of 2.32 and a drug sensitivity score [24] of 17.1.
`CC(=O)OC[C@H]1O[C@@H]([S-])[C@H](OC(C)=O)[C@@H](OC(C)=O)[C@@H]1OC(C)=O.CCP(CC)CC.[Au+]` [Auranofin] (max concentration tested 2500 nM) was tested, and the “% inhibition” value [1] was 75.4%, the “% inhibition” value [2] was 25.1 ± 9.3% and the “% inhibition” value [3] was 79.9%. The “% inhibition” value [4] was 95.2%, the “% inhibition” value [5] was 66.9% and the “% inhibition” value [6] was 91.7%. The “% inhibition” value [7] was 94.62 ± 0.92%, the “% inhibition” value [8] was 94.8% and the “% inhibition” value [9] was 99.9%. For the same molecule, the drug sensitivity score [10] was 4.86, the drug sensitivity score [11] was 1.36 ± 1 and the drug sensitivity score [12] was 5.55. For the same molecule, the drug sensitivity score [13] was 8.02, the drug sensitivity score [14] was 3.73 and the drug sensitivity score [15] was 5.04. For the same molecule, the drug sensitivity score [16] was 8.14 ± 2, the drug sensitivity score [17] was 8.86 and the drug sensitivity score [18] was 9.71. The drug sensitivity score [19] was 1.15, the drug sensitivity score [20] was 0.0037 ± 0.0052 and the drug sensitivity score [21] was 3.5. For the same molecule, the drug sensitivity score [22] was 7.25, the drug sensitivity score [23] was 0.171 and the drug sensitivity score [24] was 7.83.
